Like-named read-outs stand apart in the source and are kept apart here.
How the values were obtained:
[1] = pharmacokinetic study with fluconazole (CYP2C9 inhibitor) co-administration in healthy volunteers; settings: fluconazole co-administered
[2] = human, in vivo
cytochrome P450 system = settings: cited from earlier work
[3] = aspirin added to warfarin, patients with atrial fibrillation already on warfarin; cited from earlier work
[4] = time-within-therapeutic range (TTR), supporting clinical data; type: in vivo, human; settings: stable anticoagulation with tecarfarin
Text: Tecarfarin is not metabolized via the cytochrome P450 system, but rather via an alternate pathway and enzyme (h-CE2) that is abundant throughout the body and essentially insaturable. Tecarfarin has a reliable and stable PK profile and PD response (anticoagulation), a well-understood mechanism of action (similar to other VKAs), with supporting clinical data.

[5] = molecular target: T1, human carboxylesterase 2 (hCE-2) (Homo sapiens, UniProt O00748); settings: cited from earlier work
T1 sequence (O00748 27-559): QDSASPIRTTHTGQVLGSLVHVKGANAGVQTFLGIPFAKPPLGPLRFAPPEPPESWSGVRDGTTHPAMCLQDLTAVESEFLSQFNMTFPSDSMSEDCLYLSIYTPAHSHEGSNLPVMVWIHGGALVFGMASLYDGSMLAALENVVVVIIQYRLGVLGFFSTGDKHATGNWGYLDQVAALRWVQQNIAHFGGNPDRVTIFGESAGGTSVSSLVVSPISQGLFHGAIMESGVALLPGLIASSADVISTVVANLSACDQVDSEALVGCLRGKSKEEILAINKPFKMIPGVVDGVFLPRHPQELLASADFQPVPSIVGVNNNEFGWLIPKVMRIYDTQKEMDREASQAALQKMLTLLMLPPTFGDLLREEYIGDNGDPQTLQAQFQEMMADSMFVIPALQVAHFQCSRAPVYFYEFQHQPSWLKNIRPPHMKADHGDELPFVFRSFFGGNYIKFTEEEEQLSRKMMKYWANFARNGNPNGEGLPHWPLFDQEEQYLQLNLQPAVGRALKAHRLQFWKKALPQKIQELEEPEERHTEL

[6] = Phase 2/3 randomized, double-blind, active-control study tecarfarin versus warfarin, TTR as primary efficacy endpoint; type: in vivo, human

Question: With `CC(=O)C[C@H](c1ccccc1)c1c(O)c2ccccc2oc1=O` [R-warfarin] as the compound, how does the “effect of fluconazole co-administration on drug exposure” value [1] read?
Answer: The value was “significantly prolonged”.

Question: With `CC(=O)CC(c1ccccc1)c1c(O)c2ccccc2oc1=O` (racemic) [warfarin] as the compound, how does the “effect of CKD on the effect of CYP2C9 genetic variation on exposure” value [2] read?
Answer: The value was “significantly increased”.

Question: And the “mean plasma concentrations in subjects with CKD versus healthy subjects” value [2]?
Answer: The value was “significantly higher”.

Question: What about the “metabolism by the cytochrome P450 system” value (cytochrome P450 system) of the same compound?
Answer: The value was “metabolized by multiple different isoenzymes of the cytochrome P450 system (primarily CYP2C9, CYP1A2 and CYP3A4)”.

Question: For `CC(=O)Oc1ccccc1C(=O)O` [aspirin], which “incremental rate of major bleeding” value [3] is on record?
Answer: The value was 1.6 % per year.

Question: For `CC(OC(=O)c1ccc(Cc2c(O)c3ccccc3oc2=O)cc1)(C(F)(F)F)C(F)(F)F` [Tecarfarin, 1,1,1,3,3,3-hexafluoro-2-methyl-2-propanyl 4-[(4-hydroxy-2-oxo-2H-chromen-3-yl)methyl] benzoate], which “time-within-therapeutic range (TTR)” value [4] is on record?
Answer: Its value is > 72%.

Question: What about the “effect of fluconazole co-administration on PK” value [1] of the same compound?
Answer: Its value is “unaffected”.

Question: And the “metabolic pathway (carboxylesterase)” value [5]?
Answer: Its value is “hydrolysis via by human carboxylesterase 2 (hCE-2)”.

Question: What about the “TTR on tecarfarin compared to warfarin” value ([6]; CYP2C9 genotypic variants on CYP2C9 inhibitors, small number of subjects) of the same compound?
Answer: Its value is “higher”.

Question: What about the “percent of time-within-therapeutic-range (TTR), tecarfarin versus warfarin” value ([6]; general population requiring chronic oral anticoagulation, blinded treatment) of the same compound?
Answer: Its value is “did not differ significantly”.

Question: What about the “TTR, tecarfarin versus warfarin” value ([6]; subjects with CYP2C9 wild type genotype) of the same compound?
Answer: Its value is “significant improvement”.

Question: And the “metabolism by the cytochrome P450 system” value (cytochrome P450 system)?
Answer: Its value is “does not proceed via the cytochrome P450 system”.

Question: And the “change of elimination half-life (t1/2) in CKD” value (CKD versus healthy subjects)?
Answer: The value was “decreased”.

Question: And the “mean plasma concentrations in subjects with CKD versus healthy subjects” value (CKD versus healthy subjects)?
Answer: The value was “not significantly higher”.

Question: With `CC(=O)C[C@@H](c1ccccc1)c1c(O)c2ccccc2oc1=O` [(S)-warfarin, reference compound] as the compound, how does the “effect of fluconazole co-administration on drug exposure” value [1] read?
Answer: Its value is “significantly prolonged”.

Question: What about the “mean plasma concentrations in subjects with CKD versus healthy subjects” value (CKD versus healthy subjects) of the same compound?
Answer: The value was “significantly higher”.

Question: And the “effect of CKD on the effect of CYP2C9 genetic variation on exposure” value (CKD, CYP2C9 genotype)?
Answer: The value was “significantly increased”.
